The source of these data is patent publication US12472219B2, “Encapsulated cannabinoid formulations for transdermal delivery” (Nutrae, LLC, priority 2018, dated 2025).

The data set in a line: Encapsulation efficiency by ultracentrifugation and HPLC.

Take `C=C(C)[C@@H]1CCC(C)=C[C@H]1c1c(O)cc(CCCCC)cc1O` [CBD, cannabidiol]: the “encapsulation efficiency of CBD (% EE)” value (active ingredient 1% (w/w), oleic acid and polysorbate 20 preparation) is reported as 80.11%.

With `CCCCCc1cc(O)c2c(c1)OC(C)(C)[C@@H]1CCC(C)=C[C@@H]21` [THC, Δ9-tetrahydrocannabinol], the “encapsulation efficiency, THC compared with CBD” value (tested concentrations 6% and 10% (w/w), oleic acid and polysorbate 20) is given as “generally higher for THC over CBD”.
